Assay results: patent US20260364057A1, “AMIDE COMPOUND, AND COMPOSITION AND USE THEREOF” (SIMCERE ZAIMING PHARMACEUTICAL CO., LTD., priority 2022, published 2026)

Molecular target: T1, Human KIF18A (1-376aa) (Homo sapiens, UniProt Q8NI77)
T1 construct: Human KIF18A (1-376aa) protease used in the experiments; purchased Shanghai Panchao Biotechnology Co., Ltd
T1 sequence (Q8NI77 1-376): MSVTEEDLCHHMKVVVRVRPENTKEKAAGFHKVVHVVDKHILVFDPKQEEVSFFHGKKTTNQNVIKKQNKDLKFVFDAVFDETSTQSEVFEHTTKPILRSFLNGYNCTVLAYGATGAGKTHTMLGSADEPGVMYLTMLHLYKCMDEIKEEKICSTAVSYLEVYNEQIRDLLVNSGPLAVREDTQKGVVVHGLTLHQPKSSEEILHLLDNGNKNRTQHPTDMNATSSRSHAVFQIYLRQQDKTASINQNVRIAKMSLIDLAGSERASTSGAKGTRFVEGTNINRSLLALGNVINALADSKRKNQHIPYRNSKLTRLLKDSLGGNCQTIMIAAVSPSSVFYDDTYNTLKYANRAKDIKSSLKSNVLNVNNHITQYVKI
Experiment: KIF18A enzyme activity assay (ADP-Glo)
Assay type: biochemical
Conditions: microtubule 50 μg/mL, ATP (Km 70 μM), room temperature, 15 min, read-out: KIF18A inhibitory activity IC50
Protocol: Test Example 1: KIF18A Enzyme Activity Assay
Based on the ADP-Glo™ Kinase Assay, the ADP amount generated in the reaction was detected to reflect the enzyme activity of KIF18A.
Human KIF18A (1-376aa) […] used in the experiments, expressed by Shanghai Panchao Biotechnology Co., Ltd., was stored at −80 °C (no more than 5 freeze-thaw cycles).
The assay kit (ADP-Glo™ Kinase Assay) was purchased from Promega (Cat. No. V9101) and stored at −30 °C. The kit detects the enzyme activity by measuring ADP generated in enzyme reaction. The KIF18A enzyme and ATP generate ADP. The remaining ATP in this reaction is consumed by the ADP-Glo reagent, while the ADP generated by the KIF18A enzyme reaction is converted back to ATP by the assay reagent. The ATP then reacts with luciferin in the presence of Ultra-Glo™ luciferase, producing luminescence. The luminescent signal is positively correlated with the activity of the KIF18A enzyme.
Compounds were each subjected to 3-fold serial dilution starting from 10 μM to obtain 10 concentration points. The compounds and pure DMSO (control) were pipetted into wells of a 384-well plate using an Echo instrument, and the total volume of compound and DMSO was 100 nL; sample concentrations of gradient dilution were obtained by the instrument based on different ratios. Preparation of a KIF18A enzyme reaction buffer: […], 10 mM MgCl2, 0.01% Pluronic F-68, 1 μM Taxol, and 50 μg/mL Microtubule. KIF18A and the enzyme reaction buffer were mixed, and then the mixed solution was added to the 384-well plate and incubated at room temperature for 15 min. ATP (Km 70 μM) was then added to the mixed solution, and the mixed solution was incubated at room temperature for 15 min. 10 μL of ADP-Glo™ Reagent was well mixed with 10 μL of the mixed solution, and the mixture was incubated at room temperature for 40 min. Finally, 20 μL of ADP-Glo™ Detection Reagent was added, and the mixture was incubated at room temperature for 30 min. The chemiluminescent signal in each well was measured using an Envision plate reader (PerkinElmer, emission wavelength: 400-700 nm). In the experiment, 1 column of wells with no compound and no enzyme (chemiluminescence value was taken as [RLU]background) and 1 column of wells with enzyme but no compound (chemiluminescence value was taken as [RLU]enzyme) were provided. The chemiluminescence value of the compound adding group was taken as [RLU]cpd. The inhibition rate of the compound on […] was calculated according to the following equation: inhibition rate (%)=([RLU]enzyme−[RLU]cpd)/([RLU]enzyme−[RLU]background)×100%, and the inhibitory activity IC50 value of the compound on the enzyme activity was calculated using a four-parameter Logistic Model method. In the following equation, x represents the logarithmic form of the concentration of compound, and f (x) represents an effect value (inhibition rate of enzyme activity at the concentration): F(x)=(A+((B−A)/(1+((C/x)^D)))). A. B, C, and D are four parameters.

| Compound | IC50 [nM] |
| --- | --- |
| O=C(Nc1ccc2cc3n(c2n1)CCCC3)c1ccc(NS(=O)(=O)CCO)cc1N1CCC2(CC1)CC2 [Compound 26] | < 200 |
| C=Cc1cc2c(NC(=O)c3ccc(NS(=O)(=O)CCO)cc3N3CCC4(CC3)CC4)ccnc2n1C [Compound 27] | < 200 |
| Cc1cnc2c(NC(=O)c3ccc(NS(=O)(=O)CCO)cc3N3CCC4(CC3)CC4)snc2c1 [Compound 32] | < 200 |
| O=C(Nc1ccc(F)c2c1nc1n2CCCC1)c1ccc(NS(=O)(=O)CCO)cc1N1CCC2(CC1)CC2 [Compound 33] | < 200 |
| O=C(Nc1ccnc2c1nc1n2CCCC1)c1ccc(NS(=O)(=O)CCO)cc1N1CCC2(CC1)CC2 [Compound 36] | < 200 |
| O=C(Nc1cncc2c1nc1n2CCCC1)c1ccc(NS(=O)(=O)CCO)cc1N1CCC2(CC1)CC2 [Compound 43] | < 500 |
| O=C(Nc1cccc2c1nc1n2C2CC(C1)C2)c1ccc(NS(=O)(=O)CCO)cc1N1CCC2(CC1)CC2 [Compound 46] | < 200 |
| O=C(Nc1snc2cc3c(nc12)CCCC3)c1ccc(NS(=O)(=O)CCO)cc1N1CCC2(CC1)CC2 [Compound 52] | < 200 |
| CC(C)c1cnc2c(NC(=O)c3ccc(NS(=O)(=O)CCO)cc3N3CCC4(CC3)CC4)snc2c1 [Compound 57] | < 200 |
| COC1Cc2nc3c(NC(=O)c4ccc(NS(=O)(=O)CCO)cc4N4CCC5(CC4)CC5)cccc3n2C1 (centres unmarked) [Compound 62] | < 200 |
| COC1CCn2c1nc1c(NC(=O)c3ccc(NS(=O)(=O)CCO)cc3N3CCC4(CC3)CC4)cccc12 (centres unmarked) [Compound 63] | < 200 |
| O=C(Nc1cc2c(c(N3CCC(F)(F)CC3)n1)CCC2)c1ccc(NS(=O)(=O)CCO)cc1N1CCC2(CC1)CC2 [Compound 66] | < 500 |

The remaining lines, values ahead:

| IC50 [nM] | Compound |
| --- | --- |
| < 200 | Cn1c(N2CCC(F)(F)CC2)nc(NC(=O)c2ccc(NS(=O)(=O)CCO)cc2N2CCC3(CC2)CC3)cc1=O [Compound 2] |
| < 200 | Cc1nc2c(NC(=O)c3ccc(NS(=O)(=O)CCO)cc3N3CCC4(CC3)CC4)cccn2n1 [Compound 3] |
| < 200 | O=C(Nc1cccc2c1ccn2C1CCC1)c1ccc(NS(=O)(=O)CCO)cc1N1CCC2(CC1)CC2 [Compound 4] |
| < 200 | O=C(Nc1ccnc2c1ccn2CCC(F)(F)F)c1ccc(NS(=O)(=O)CCO)cc1N1CCC2(CC1)CC2 [Compound 5] |
| < 200 | CC(C)n1ccc2c(NC(=O)c3ccc(NS(=O)(=O)CCO)cc3N3CCC4(CC3)CC4)ccnc21 [Compound 6] |
| < 200 | Cc1ccnc2c(NC(=O)c3ccc(NS(=O)(=O)CCO)cc3N3CCC4(CC3)CC4)ccnc12 [Compound 7] |
| < 200 | O=C(Nc1cccc2c1oc1ccccc12)c1ccc(NS(=O)(=O)CCO)cc1N1CCC2(CC1)CC2 [Compound 8] |
| < 200 | Cc1nc2c(NC(=O)c3ccc(NS(=O)(=O)CCO)cc3N3CCC4(CC3)CC4)cccn2c1C [Compound 9] |
| < 200 | O=C(Nc1ccnc2c1OCC1CCCCN21)c1ccc(NS(=O)(=O)CCO)cc1N1CCC2(CC1)CC2 (centres unmarked) [Compound 10] |
| < 200 | O=C(Nc1cc2nccn2c(OCCC(F)(F)F)n1)c1ccc(NS(=O)(=O)CCO)cc1N1CCC2(CC1)CC2 [Compound 13] |
| < 200 | Cn1ccc2ccc(NC(=O)c3ccc(NS(=O)(=O)CCO)cc3N3CCC4(CC3)CC4)nc21 [Compound 15] |
| < 200 | CN1CCc2ccc(NC(=O)c3ccc(NS(=O)(=O)CCO)cc3N3CCC4(CC3)CC4)nc21 [Compound 16] |
| < 200 | Cc1cc(NC(=O)c2ccc(NS(=O)(=O)CCO)cc2N2CCC3(CC2)CC3)c2nc3c(n2c1)CCCC3 [Compound 18] |
| < 200 | CN1CCOc2ccc(NC(=O)c3ccc(NS(=O)(=O)CCO)cc3N3CCC4(CC3)CC4)nc21 [Compound 19] |
| < 200 | O=C(Nc1cc2nccn2c(N2CCC3(CC2)CC3)n1)c1ccc(NS(=O)(=O)CCO)cc1N1CCC2(CC1)CC2 [Compound 20] |
| < 200 | O=C(Nc1cccc2c1nc1n2CCC1)c1ccc(NS(=O)(=O)CCO)cc1N1CCC2(CC1)CC2 [Compound 23] |
| < 200 | O=C(Nc1cccc2c1nc1n2CC(F)(F)CC1)c1ccc(NS(=O)(=O)CCO)cc1N1CCC2(CC1)CC2 [Compound 25] |
